Assays:
mouse TAAR1 = mouse TAAR1 (Mus musculus (Mouse), UniProt Q923Y8); assay: Radioligand binding assay on mouse TAAR1; conditions: mouse TAAR1 (first value of the cell); membranes of HEK-293 cells stably expressing mouse TAAR1; read-out: Ki (μM) mouse/rat
Method: (§1) Construction of TAAR Expression Plasmids and Stably Transfected Cell Lines
(§2) For the construction of expression plasmids the coding sequences of human, rat and mouse TAAR 1 were amplified from genomic DNA essentially as described by Lindemann et al.. The Expand High Fidelity PCR System (Roche Diagnostics) was used with 1.5 mM Mg^2+ and purified PCR products were cloned into pCR2.1-TOPO cloning vector (Invitrogen) following the instructions of the manufacturer. PCR products were subcloned into the pIRESneo2 vector (BD Clontech, Palo Alto, Calif.), and expression vectors were sequence verified before introduction in cell lines.
(§3) HEK293 cells (ATCC # CRL-1573) were cultured essentially as described by Lindemann et al. (2005). For the generation of stably transfected cell lines HEK293 cells were transfected with the pIRESneo2 expression plasmids containing the TAAR coding sequences (described above) with Lipofectamine 2000 (Invitrogen) according to the instructions of the manufacturer, and 24 hrs post transfection the culture medium was supplemented with 1 mg/ml G418 (Sigma, Buchs, Switzerland). After a culture period of about 10 d clones were isolated, expanded and tested for responsiveness to trace amines (all compounds purchased from Sigma) with the cAMP Biotrak Enzyme immunoassay (EIA) System (Amersham) following the non-acetylation EIA procedure provided by the manufacturer.
Radioligand Binding Assay on Mouse TAAR1
(§4) Membrane Preparation and Radioligand Binding.
HEK-293 cells stably expressing mouse TAAR1 were maintained at 37° C. and 5% CO2 in DMEM high glucose medium, containing fetal calf serum (10%, heat inactivated for 30 min at 56° C.), penicillin/streptomycin (1%), and 375 μg/ml geneticin (Gibco). Cells were released from culture flasks using trypsin/EDTA, harvested, washed twice with ice-cold PBS (without Ca^2+and Mg^2+), pelleted at 1,000 rpm for 5 min at 4° C., frozen and stored at −80° C. Frozen pellets were suspended in 20 ml HEPES-NaOH (20 mM, pH 7.4) containing 10 mM EDTA and homogenized with a Polytron (PT 6000, Kinematica) at 14,000 rpm for 20 s. The homogenate was centrifuged at 48,000×g for 30 min at 4° C. Subsequently, the supernatant was removed and discarded, and the pellet resuspended in 20 ml HEPES-NaOH (20 mM, pH 7.4) containing 0.1 mM EDTA using the Polytron (20 s at 14,000 rpm). This procedure was repeated and the final pellet resuspended in HEPES-NaOH containing 0.1 mM EDTA and homogenized using the Polytron. Typically, aliquots of 2 ml membrane portions were stored at −80° C. With each new membrane batch the dissociation constant (Kd) was determined via a saturation curve. The TAAR1 radioligand ^3[H]-(S)-4-[(ethyl-phenyl-amino)-methyl]-4,5-dihydro-oxazol-2-ylamine (described in WO 2008/098857) was used at a concentration equal to the calculated Kd value, that was usually around 0.7 nM, resulting in the binding of approximately 0.5% of the radioligand and a specific binding representing approximately 70% of the total binding. Nonspecific binding was defined as the amount of ^3[H]-(S)-4-[(ethyl-phenyl-amino)-methyl]-4,5-dihydro-oxazol-2-ylamine bound in the presence of 10 μM unlabeled ligand. All compounds were tested at a broad range of concentrations ([…]) in duplicates. The test compounds (20 […]μl/well) were transferred into a 96 deep well plate (TreffLab), and 180 μl of HEPES-NaOH (20 mM, pH 7.4) containing MgCl2 (10 mM) and CaCl2 (2 mM) (binding buffer), 300 μl of the radioligand ^3[H]-(S)-4-[(ethyl-phenyl-amino)-methyl]-4,5-dihydro-oxazol-2-ylamine at a concentration of 3.3×Kd in nM and 500 μl of the membranes (resuspended at […]) added. The 96 deep well plates were incubated for 1 hr at 4° C. Incubations were terminated by rapid filtration through Unifilter-96 plates (Packard Instrument Company) and glass filters GF/C (Perkin Elmer) presoaked for 1 hr in polyethylenimine (0.3%) and washed 3 times with 1 ml of cold binding buffer. […]

rat TAAR1 = rat TAAR1 (Rattus norvegicus (Rat), UniProt Q923Y9); assay: Radioligand binding assay on rat TAAR1; conditions: rat TAAR1 (second value of the cell); membranes of HEK-293 cells stably expressing rat TAAR1; read-out: Ki (μM) mouse/rat
Method: as §1, §2, §3
Radioligand Binding Assay on Rat TAAR1
as §4
HEK-293 cells stably expressing rat TAAR1 were maintained at 37° C. and 5% CO2 in DMEM high glucose medium, containing fetal calf serum (10%, heat inactivated for 30 min at 56° C.), penicillin/streptomycin (1%), and 375 μg/ml geneticin (Gibco). Cells were released from culture flasks using trypsin/EDTA, harvested, washed twice with ice-cold PBS (without Ca^2+ and Mg^2+), pelleted at 1,000 rpm for 5 min at 4° C., frozen and stored at −80° C. Frozen pellets were suspended in 20 ml HEPES-NaOH (20 mM, pH 7.4) containing 10 mM EDTA and homogenized with a Polytron (PT 6000, Kinematica) at 14,000 rpm for 20 s. The homogenate was centrifuged at 48,000×g for 30 min at 4° C. Subsequently, the supernatant was removed and discarded, and the pellet resuspended in 20 ml HEPES-NaOH (20 mM, pH 7.4) containing 0.1 mM EDTA using the Polytron (20 s at 14,000 rpm). This procedure was repeated and the final pellet resuspended in HEPES-NaOH containing 0.1 mM EDTA and homogenized using the Polytron. Typically, aliquots of 2 ml membrane portions were stored at −80° C. With each new membrane batch the dissociation constant (Kd) was determined via a saturation curve. […] Nonspecific binding was defined as the amount of ^3[H]-(S)-4-[(ethyl-phenyl-amino)-methyl]-4,5-dihydro-oxazol-2-ylamine bound in the presence of 10 μM unlabeled ligand. All compounds were tested at a broad range of concentrations ([…]) in duplicates. The test compounds (20 […]μl/well) were transferred into a 96 deep well plate (TreffLab), and 180 μl of HEPES-NaOH (20 mM, pH 7.4) containing MgCl2 (10 mM) and CaCl2 (2 mM) (binding buffer), 300 μl of the radioligand ^3[H]-(S)-4-[(ethyl-phenyl-amino)-methyl]-4,5-dihydro-oxazol-2-ylamine at a concentration of 3.3×Kd in nM and 500 μl of the membranes (resuspended at 50 μg protein per ml) added. The 96 deep well plates were incubated for 1 hr at 4° C. Incubations were terminated by rapid filtration through Unifilter-96 plates (Packard Instrument Company) and glass filters GF/C (Perkin Elmer) presoaked for 1 hr in polyethylenimine (0.3%) and washed 3 times with 1 ml of cold binding buffer. After addition of 45 μl of Microscint 40 (PerkinElmer) the Unifilter-96 plate was sealed and after 1 hr the ratioactivity counted using a TopCount Microplate Scintillation Counter (Packard Instrument Company).

Sequence of mouse TAAR1 (Q923Y8 whole entry): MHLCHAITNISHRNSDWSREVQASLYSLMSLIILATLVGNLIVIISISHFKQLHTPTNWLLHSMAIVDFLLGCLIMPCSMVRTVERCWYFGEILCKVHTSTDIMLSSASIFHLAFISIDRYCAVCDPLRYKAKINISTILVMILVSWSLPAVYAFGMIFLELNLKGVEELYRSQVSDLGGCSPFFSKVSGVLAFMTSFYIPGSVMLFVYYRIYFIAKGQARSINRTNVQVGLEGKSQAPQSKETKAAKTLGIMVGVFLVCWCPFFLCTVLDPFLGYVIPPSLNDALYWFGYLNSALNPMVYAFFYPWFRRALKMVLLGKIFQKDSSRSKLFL
Sequence of rat TAAR1 (Q923Y9 whole entry): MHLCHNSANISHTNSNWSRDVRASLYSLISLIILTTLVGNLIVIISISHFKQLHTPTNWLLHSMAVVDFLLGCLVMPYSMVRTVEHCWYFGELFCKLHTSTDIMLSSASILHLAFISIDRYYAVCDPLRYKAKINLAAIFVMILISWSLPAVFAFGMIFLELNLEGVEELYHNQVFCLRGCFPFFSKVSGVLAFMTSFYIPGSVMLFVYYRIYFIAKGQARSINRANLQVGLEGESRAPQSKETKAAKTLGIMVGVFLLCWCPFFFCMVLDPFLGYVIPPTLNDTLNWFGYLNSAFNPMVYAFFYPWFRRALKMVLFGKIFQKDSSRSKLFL

| Compound | Ki (mouse TAAR1) [µM] | Ki (rat TAAR1) [µM] |
| --- | --- | --- |
| O=C(Nc1ccc(C[C@@]23CN[C@@H](CO2)C3)cc1)c1[nH]nc(C2CC2)c1Cl [Example 48, 4-Chloro-3-cyclopropyl-N-[4-[[(1R,4R)-5-oxa-2-azabicyclo[2.2.1]heptan-4-yl]methyl]phenyl]-1H-pyrazole-5-carboxamide] | 0.0147 | 0.112 |
| FC(F)(F)c1nccc(Nc2ccc([C@@]34CN[C@@H](CO3)C4)cc2)n1 [Example 56, N-[4-[(1R,4S)-5-Oxa-2-azabicyclo[2.2.1]heptan-4-yl]phenyl]-2-(trifluoromethyl)pyrimidin-4-amine] | 0.0393 | 2.41 |
| O=C(Nc1ccc(C23CCC(CO2)NC3)cc1)c1ccc(Cl)cc1 (racemic) [Example 5, (RS)-4-Chloro-N-[4-(5-oxa-2-azabicyclo[2.2.2]octan-4-yl)phenyl]benzamide] | 0.0028 | 0.662 |
| O=C(Nc1ccc([C@@]23CN[C@@H](CO2)C3)cc1)c1ccc(Cl)cc1 [Example 54, 4-Chloro-N-[4-[(1R,4S)-5-oxa-2-azabicyclo[2.2.1]heptan-4-yl]phenyl]benzamide] | 0.0054 | 0.97 |
| O=C(Nc1ccc([C@]23CN[C@H](CO2)C3)cc1)c1ccc(Cl)cc1 [Example 58, 4-Chloro-N-[4-[(1S,4R)-5-oxa-2-azabicyclo[2.2.1]heptan-4-yl]phenyl]benzamide] | 0.016 | 0.071 |
| CCOc1ccc(C(=O)Nc2ccc(C[C@@]34CN[C@@H](CO3)C4)cc2)cc1 [Example 49, 4-Ethoxy-N-[4-[[(1R,4R)-5-oxa-2-azabicyclo[2.2.1]heptan-4-yl]methyl]phenyl]benzamide] | 0.0067 | 0.142 |
| FC(F)(F)c1cnc(Nc2ccc(C34CCC(CO3)NC4)cc2)cn1 (racemic) [Example 64, (RS)—N-[4-(5-Oxa-2-azabicyclo[2.2.2]octan-4-yl)phenyl]-5-(trifluoromethyl)pyrazin-2-amine] | 0.03 | 7.68 |
| O=C(Nc1ccc(C[C@@]23CN[C@@H](CO2)C3)cc1)Nc1ccc(C(F)(F)F)cc1 [Example 22, 1-[4-[[(1R,4R)-5-Oxa-2-azabicyclo[2.2.1]heptan-4-yl]methyl]phenyl]-3-[4-(trifluoromethyl)phenyl]urea] | 0.0126 | 0.0237 |
| CCc1ncc(C(=O)Nc2ccc(C[C@@]34CN[C@@H](CO3)C4)cc2)cn1 [Example 50, 2-Ethyl-N-[4-[[(1R,4R)-5-oxa-2-azabicyclo[2.2.1]heptan-4-yl]methyl]phenyl]pyrimidine-5-carboxamide] | 0.226 | 1.24 |

Next, values leading:

| Ki (mouse TAAR1) [µM] | Ki (rat TAAR1) [µM] | Compound |
| --- | --- | --- |
| > 10 | 0.854 | FC(F)(F)c1cnc(Nc2ccc(C[C@]34CN[C@H](CO3)C4)cc2)cn1 [Example 32, N-[4-[[(1S,4S)-5-Oxa-2-azabicyclo[2.2.1]heptan-4-yl]methyl]phenyl]-5-(trifluoromethyl)pyrazin-2-amine] |
| 0.0137 | 0.0263 | O=C(Nc1ccc(C(F)(F)F)cc1)Nc1ccc(C23CCC(CO2)NC3)cc1 (racemic) [Example 67, (RS)-1-[4-(5-Oxa-2-azabicyclo[2.2.2]octan-4-yl)phenyl]-3-[4-(trifluoromethyl)phenyl]urea] |
| 0.019 | 1.22 | O=C(Nc1ccc(C23CCC(CO2)NC3)cc1)c1ccc(OCC2CC2)cc1 (racemic) [Example 11, (RS)-4-(Cyclopropylmethoxy)-N-[4-(5-oxa-2-azabicyclo[2.2.2]octan-4-yl)phenyl]benzamide] |
| 0.0135 | 0.0973 | CCCc1n[nH]c(C(=O)Nc2ccc(C34CCC(CO3)NC4)cc2)c1Cl (racemic) [Example 34, (RS)-4-Chloro-N-[4-(5-oxa-2-azabicyclo[2.2.2]octan-4-yl)phenyl]-3-propyl-1H-pyrazole-5-carboxamide] |
| 0.0046 | 0.0108 | O=C(Nc1ccc(C[C@@]23CN[C@@H](CO2)C3)cc1)Nc1cccc(C(F)(F)F)c1 [Example 44, 1-[4-[[(1R,4R)-5-Oxa-2-azabicyclo[2.2.1]heptan-4-yl]methyl]phenyl]-3-[3-(trifluoromethyl)phenyl]urea] |
| 0.005 | 0.0465 | O=C(Nc1ccc(Cl)cc1)Nc1ccc(C23CCC(CO2)NC3)cc1 (racemic) [Example 66, (RS)-1-(4-Chlorophenyl)-3-[4-(5-oxa-2-azabicyclo[2.2.2]octan-4-yl)phenyl]urea] |
| 0.0124 | 0.202 | O=C(Nc1ccc(C[C@@]23CN[C@@H](CO2)C3)cc1)Nc1ccccc1Cl [Example 43, 1-(2-Chlorophenyl)-3-[4-[[(1R,4R)-5-oxa-2-azabicyclo[2.2.1]heptan-4-yl]methyl]phenyl]urea] |
| 0.0022 | 0.0551 | O=C(Nc1ccc(C[C@@]23CN[C@@H](CO2)C3)cc1)c1cccc(Cl)c1 [Example 39, 3-Chloro-N-[4-[[(1R,4R)-5-oxa-2-azabicyclo[2.2.1]heptan-4-yl]methyl]phenyl]benzamide] |
| 0.0377 | 1.44 | O=C(Nc1ccc(C23CCC(CO2)NC3)cc1)c1ccnc(C(F)(F)F)c1 (racemic) [Example 37, (RS)—N-[4-(5-Oxa-2-azabicyclo[2.2.2]octan-4-yl)phenyl]-2-(trifluoromethyl)pyridine-4-carboxamide] |
| 0.122 | 3.84 | FC(F)(F)c1cnc(Nc2ccc(C34CCC(CO3)NC4)cc2)nc1 (racemic) [Example 65, (RS)—N-[4-(5-Oxa-2-azabicyclo[2.2.2]octan-4-yl)phenyl]-5-(trifluoromethyl)pyrimidin-2-amine] |

Reference: patent US9663530B2, “5-oxa-2-azabicyclo[2.2.2]OCTAN-4-yl and 5-oxa-2-azabicyclo[2.2.1]heptan-4-yl derivatives” (Hoffmann-La Roche Inc., priority 2014, dated 2017)
